Measured values from patent US12422427B2, “Compounds for treatment of diseases and methods of screening therefor” (Max-Planck-Gesellschaft zur Förderung der Wissenschaften …, priority 2018, dated 2025).
Entries after “also recorded” stand apart in the source; their conditions may differ.

Columns and labels:
[1] = test system: iPS MNs expressing P525L FUS; experiment: Axonal transport of lysosomes in iPS motor neurons expressing P525L FUS; format: cell-based, human; conditions: 2 μM, 3 days
Protocol: FIG. 12A) Example kymographs of lysosome movement in the distal portion of FUS P525L GFP motor neuron axons after 3 days treatment with compound solvent (DMSO) or 2 μM lipoamide. Lysotracker fluorescence. FIG. 12B) Proportion of lysotracker-labelled lysosomes moving with an average speed greater than 2 μm/s following 3 days treatment with 2 μM lipoamide or equivalent DMSO concentration solvent control for motor neurons expressing either P525L or wild-type FUS. n=5 (P525L) or n=3 (wild-type) biological replicates, analysing 5 axon bundles per replicate.
For analysis of axonal transport iPS MNs expressing P525L FUS were treated with 2 μM compound or an equal volume of DMSO for 3 days. Longer incubation was selected to ensure penetration and action of compounds along the length of the axon channel. 2 μM was selected as the highest concentration where there were no toxic effects (assessed qualitatively). […] were labelled by addition of 50 nM lysotracker red (ThermoFisher) and imaged using a Leica DMI6000 inverted microscope with a 100× NA 1.46 oil immersion objective and an Andor iXON 897 EMCCD camera in an incubator chamber (37° C., 5% CO2) at 3⅓ Hz for 120 s at either the proximal or distal end of the silicone channels containing the axons. […]

[2] = Stability of lipoamide in growth medium by NMR signal of the trans-amide proton; format: physicochemical
Protocol: Integrated NMR signal intensity is proportional to concentration, provided conditions (including ionic strength, buffer composition, temperature and pH) are identical^73. Chemical exchange^74, expected as the amide protons in lipoamide should be labile in water, must also be accounted for. To ensure appropriate conditions were selected, (^15N) ^1H NMR spectra were obtained in different solvents (Chloroform-d, H2O, culture medium, medium with 3 mM KAsO2 and a 50:50 mixture of medium with 3 mM KAsO2 and EDTA-trypsin) (FIGS. 13B-13C). […] To determine temperature and pH sensitivity of the trans-amide proton signal (^15N) ^1H spectra of 1 mM lipoamide in medium were acquired at different temperatures (FIG. 13D) and pH (FIG. 13E). […] To determine whether lipoamide degrades over time the signal from the trans-amide proton was monitored at 37° C. and 10° C. for 10 h. […] At 10° C. and below pH 8.6 the integrated signal from the trans-amide proton resonance is therefore a good measure of ^15N lipoamide concentration.

NC(=O)CCCCC1CCSS1 (racemic) [lipoamide, 5-(1,2-dithiolan-3-yl)pentanamide]
axonal (lysosome) transport [1]: recovered axonal transport in P525L FUS iPS MNs to the same level as WT neurons; also recorded: significantly increased lysosome transport | time over which signal intensity is stable ([2]; growth medium, 10° C.): > 10 h | trans-amide proton signal intensity over time ([2]; medium, 37° C., 10 h): decayed slowly
